PMC11233931, “Remodeling tumor‐associated macrophage for anti‐cancer effects by rational design of irreversible inhibition of mitogen‐activated protein kinase‐activated protein kinase 2” (MedComm, 2024)

Experiments:
Assay in all cases: Eurofins kinase selectivity profile against 380 other human recombinant kinases (Table S2)
Assay type in all cases: biochemical
[1] = molecular target: T1, 380 human recombinant protein kinases (Homo sapiens, UniProt P36507); conditions: MEK2(h), read-out: Inhibition rate
T1 construct: purchased Eurofins (Celle Lévescault)
T1 sequence (P36507 whole entry): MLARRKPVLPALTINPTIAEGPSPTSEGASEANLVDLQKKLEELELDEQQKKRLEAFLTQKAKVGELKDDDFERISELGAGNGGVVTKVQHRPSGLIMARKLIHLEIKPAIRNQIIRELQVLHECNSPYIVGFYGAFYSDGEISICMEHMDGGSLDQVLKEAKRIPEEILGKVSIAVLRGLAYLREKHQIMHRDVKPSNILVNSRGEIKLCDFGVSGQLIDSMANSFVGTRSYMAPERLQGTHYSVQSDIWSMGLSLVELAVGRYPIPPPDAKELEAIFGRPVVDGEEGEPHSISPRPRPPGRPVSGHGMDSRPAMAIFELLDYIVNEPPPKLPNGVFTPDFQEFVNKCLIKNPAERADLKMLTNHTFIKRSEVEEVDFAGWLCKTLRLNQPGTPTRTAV
Experimental: (§1) Subsequently, to ascertain whether the high potency of compound 11 was specific for MK2, an additional 380 human recombinant protein kinases were screened.
(§2) To assess the impact of various compounds on MK2 kinase activity, we utilized the ADP‐Glo Assay Kit (Promega) following the manufacturer's instructions. Luminescence measurements were taken using a SpectraMax Paradigm reader. The inhibition percentage was calculated using the following formula: ((specific signalDMSO control − specific signal inhibitor)/(specific signalDMSO control)) × 100%. The IC50 values were determined employing dose–response curve fitting via Prism (Graph Pad). Additionally, Eurofins company (Celle Lévescault) conducted the analysis on compound 11’s inhibitory activity against 380 other human recombinant kinases at various concentrations.

[2] = molecular target: T2, 380 human recombinant protein kinases (Homo sapiens, UniProt Q16620); conditions: TrkB(h), read-out: Inhibition rate (%)
T2 construct: purchased Eurofins (Celle Lévescault)
T2 sequence (Q16620 32-822): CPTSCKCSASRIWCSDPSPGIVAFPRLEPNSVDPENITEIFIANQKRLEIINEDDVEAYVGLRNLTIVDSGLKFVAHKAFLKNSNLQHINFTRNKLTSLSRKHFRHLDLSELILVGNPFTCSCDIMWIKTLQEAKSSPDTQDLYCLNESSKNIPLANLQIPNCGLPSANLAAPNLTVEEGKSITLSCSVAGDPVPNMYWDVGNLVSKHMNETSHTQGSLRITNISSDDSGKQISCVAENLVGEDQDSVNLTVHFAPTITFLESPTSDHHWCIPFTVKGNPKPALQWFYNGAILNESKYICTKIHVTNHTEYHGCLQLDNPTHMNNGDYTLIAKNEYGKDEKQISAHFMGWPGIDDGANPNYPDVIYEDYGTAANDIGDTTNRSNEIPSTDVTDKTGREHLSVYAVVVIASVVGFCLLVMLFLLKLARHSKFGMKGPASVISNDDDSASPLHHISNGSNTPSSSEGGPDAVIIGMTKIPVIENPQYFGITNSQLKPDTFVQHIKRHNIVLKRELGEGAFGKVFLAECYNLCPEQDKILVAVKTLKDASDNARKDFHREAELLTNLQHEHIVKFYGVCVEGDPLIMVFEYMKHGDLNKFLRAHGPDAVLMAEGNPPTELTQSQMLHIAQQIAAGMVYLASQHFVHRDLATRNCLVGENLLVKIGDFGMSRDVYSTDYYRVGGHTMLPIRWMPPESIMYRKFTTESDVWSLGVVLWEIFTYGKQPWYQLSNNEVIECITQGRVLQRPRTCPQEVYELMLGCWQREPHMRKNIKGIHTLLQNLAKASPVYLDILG
Experimental: as §1, §2

[3] = molecular target: T3, 380 human recombinant protein kinases (Homo sapiens, UniProt Q96RR4); conditions: CaMKK2(h), read-out: Inhibition rate
T3 construct: purchased Eurofins (Celle Lévescault)
T3 sequence (Q96RR4 whole entry): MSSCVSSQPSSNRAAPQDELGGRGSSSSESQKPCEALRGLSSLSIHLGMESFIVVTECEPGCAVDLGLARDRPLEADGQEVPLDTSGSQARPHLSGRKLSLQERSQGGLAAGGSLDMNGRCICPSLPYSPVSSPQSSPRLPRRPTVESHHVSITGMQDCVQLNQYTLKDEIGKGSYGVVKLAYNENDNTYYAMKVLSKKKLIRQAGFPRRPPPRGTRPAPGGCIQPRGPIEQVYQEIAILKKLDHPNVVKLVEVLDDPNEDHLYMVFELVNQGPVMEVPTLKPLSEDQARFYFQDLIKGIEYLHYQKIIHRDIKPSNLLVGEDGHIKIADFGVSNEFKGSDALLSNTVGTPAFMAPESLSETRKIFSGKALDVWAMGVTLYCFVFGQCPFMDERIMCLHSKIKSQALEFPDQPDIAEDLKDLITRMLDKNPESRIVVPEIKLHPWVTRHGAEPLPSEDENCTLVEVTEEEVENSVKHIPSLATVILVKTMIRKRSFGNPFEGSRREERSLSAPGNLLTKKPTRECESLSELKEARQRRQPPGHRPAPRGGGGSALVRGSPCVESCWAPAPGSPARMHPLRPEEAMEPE
Experimental: as §1, §2

[4] = molecular target: T4, 380 human recombinant protein kinases (Homo sapiens, UniProt Q92772); conditions: CDKL2(h), read-out: Inhibition rate
T4 construct: purchased Eurofins (Celle Lévescault)
T4 sequence (Q92772 1-493): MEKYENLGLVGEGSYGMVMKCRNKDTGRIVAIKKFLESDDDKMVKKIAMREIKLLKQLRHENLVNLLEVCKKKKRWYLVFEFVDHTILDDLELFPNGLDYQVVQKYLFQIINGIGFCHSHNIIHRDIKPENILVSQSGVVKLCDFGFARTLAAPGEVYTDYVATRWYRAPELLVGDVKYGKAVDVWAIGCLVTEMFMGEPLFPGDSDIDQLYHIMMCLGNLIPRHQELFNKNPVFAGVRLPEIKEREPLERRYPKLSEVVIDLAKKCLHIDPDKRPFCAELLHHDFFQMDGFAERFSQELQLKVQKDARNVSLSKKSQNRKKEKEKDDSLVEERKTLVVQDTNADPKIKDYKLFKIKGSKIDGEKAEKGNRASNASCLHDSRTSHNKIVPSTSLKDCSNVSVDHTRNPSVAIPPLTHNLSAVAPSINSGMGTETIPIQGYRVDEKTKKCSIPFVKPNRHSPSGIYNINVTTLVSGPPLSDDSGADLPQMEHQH
Experimental: as §1, §2

[5] = molecular target: T5, 380 human recombinant protein kinases (Homo sapiens, UniProt Q9UL54); conditions: TAO2(h), read-out: Inhibition rate (%)
T5 construct: purchased Eurofins (Celle Lévescault)
T5 sequence (Q9UL54 1-1235): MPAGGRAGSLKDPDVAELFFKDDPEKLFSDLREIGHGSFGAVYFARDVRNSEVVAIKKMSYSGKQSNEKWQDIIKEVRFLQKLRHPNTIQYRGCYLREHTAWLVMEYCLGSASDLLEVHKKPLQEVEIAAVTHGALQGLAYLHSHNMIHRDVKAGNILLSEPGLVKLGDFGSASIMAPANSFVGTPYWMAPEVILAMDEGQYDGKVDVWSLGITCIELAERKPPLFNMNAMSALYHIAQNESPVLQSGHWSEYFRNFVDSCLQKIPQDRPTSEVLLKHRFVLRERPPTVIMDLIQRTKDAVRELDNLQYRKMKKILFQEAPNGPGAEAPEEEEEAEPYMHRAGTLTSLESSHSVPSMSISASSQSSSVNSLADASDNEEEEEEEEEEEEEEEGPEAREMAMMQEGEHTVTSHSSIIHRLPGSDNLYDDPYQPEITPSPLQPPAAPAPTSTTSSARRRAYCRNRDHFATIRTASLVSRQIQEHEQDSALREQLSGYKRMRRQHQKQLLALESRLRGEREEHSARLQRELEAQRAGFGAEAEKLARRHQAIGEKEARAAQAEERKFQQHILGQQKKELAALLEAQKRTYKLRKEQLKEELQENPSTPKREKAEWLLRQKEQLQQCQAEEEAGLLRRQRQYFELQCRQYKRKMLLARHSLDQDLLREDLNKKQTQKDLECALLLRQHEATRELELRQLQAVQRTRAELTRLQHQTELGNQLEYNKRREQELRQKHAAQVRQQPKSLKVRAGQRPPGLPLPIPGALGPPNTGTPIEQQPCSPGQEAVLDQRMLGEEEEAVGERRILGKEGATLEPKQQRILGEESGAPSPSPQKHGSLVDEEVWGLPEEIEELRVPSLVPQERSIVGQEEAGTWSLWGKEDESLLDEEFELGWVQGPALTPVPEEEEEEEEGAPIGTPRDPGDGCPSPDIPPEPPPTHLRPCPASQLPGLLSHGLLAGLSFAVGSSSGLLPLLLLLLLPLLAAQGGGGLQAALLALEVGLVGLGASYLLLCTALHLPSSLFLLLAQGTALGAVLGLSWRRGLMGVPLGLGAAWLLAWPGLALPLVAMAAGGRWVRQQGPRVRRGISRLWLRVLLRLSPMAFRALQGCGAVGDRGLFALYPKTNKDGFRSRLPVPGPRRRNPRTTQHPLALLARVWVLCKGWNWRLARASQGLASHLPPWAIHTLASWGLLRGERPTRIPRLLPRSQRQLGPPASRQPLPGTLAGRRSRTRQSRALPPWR
Experimental: as §1, §2

[6] = molecular target: T6, 380 human recombinant protein kinases (Homo sapiens, UniProt P00519, M351T); conditions: Abl (M351T)(h), read-out: Inhibition rate
T6 construct: purchased Eurofins (Celle Lévescault)
Experimental: as §1, §2

`C=CC(=O)Nc1cc(-c2cc(-c3cc4c([nH]3)CCNC4=O)ccn2)ccc1OC(F)(F)F` [compound 11] was tested. Which inhibition at 0.01 µM ([1]; 10 nM) did it give?
Its inhibition at 0.01 µM is -4%.

What about the inhibition at 0.1 µM ([1]; 100 nM) of the same compound?
The inhibition at 0.1 µM was 4%.

What about the inhibition at 1 µM ([1]; 1000 nM) of the same compound?
The inhibition at 1 µM was 6%.

What about the inhibition at 0.01 µM ([2]; 10 nM) of the same compound?
The inhibition at 0.01 µM was -6%.

And the inhibition at 0.1 µM ([2]; 100 nM)?
Its inhibition at 0.1 µM is -9%.

And the inhibition at 1 µM ([2]; 1000 nM)?
Its inhibition at 1 µM is -20%.

And the inhibition at 0.01 µM ([3]; 10 nM)?
Its inhibition at 0.01 µM is -9%.

And the inhibition at 0.1 µM ([3]; 100 nM)?
Its inhibition at 0.1 µM is -1%.

What about the inhibition at 1 µM ([3]; 1000 nM) of the same compound?
Its inhibition at 1 µM is 38%.

What about the inhibition at 0.01 µM ([4]; 10 nM) of the same compound?
The inhibition at 0.01 µM was 31%.

And the inhibition at 0.1 µM ([4]; 100 nM)?
Its inhibition at 0.1 µM is 50%.

What about the inhibition at 1 µM ([4]; 1000 nM) of the same compound?
The inhibition at 1 µM was 54%.

What about the inhibition at 0.01 µM ([5]; 10 nM) of the same compound?
The inhibition at 0.01 µM was -7%.

What about the inhibition at 0.1 µM ([5]; 100 nM) of the same compound?
Its inhibition at 0.1 µM is 1%.

And the inhibition at 1 µM ([5]; 1000 nM)?
Its inhibition at 1 µM is 0%.

What about the inhibition at 0.01 µM ([6]; 10 nM) of the same compound?
The inhibition at 0.01 µM was 9%.

And the inhibition at 0.1 µM ([6]; 100 nM)?
Its inhibition at 0.1 µM is 2%.

What about the inhibition at 1 µM ([6]; 1000 nM) of the same compound?
Its inhibition at 1 µM is 22%.
